From the NIST ThermoML archive (doi:10.1021/je700215z)
± gives the expanded uncertainty stated by the source.

What was measured:
[1] = xn = mol fraction of the nth substance listed

CCO [ethanol]
Conditions | surface tension liquid-gas [mN/m]
283.15 K | 23.12 ± 0.28
288.15 K | 22.75 ± 0.28
293.15 K | 22.28 ± 0.28
298.15 K | 21.86 ± 0.27
303.15 K | 21.49 ± 0.27
308.15 K | 21.15 ± 0.27
313.15 K | 20.66 ± 0.27

CCCCCC [hexane] + CCO
surface tension liquid-gas [mN/m], [1]
Conditions | 283.15 K | 288.15 K | 293.15 K | 298.15 K | 303.15 K | 308.15 K | 313.15 K
x2 = 0.0855 | 19.7 ± 0.28 | 19.11 ± 0.27 | 18.57 ± 0.27 | 18.03 ± 0.27 | 17.49 ± 0.26 | 16.67 ± 0.26 | 16.3 ± 0.25
x2 = 0.1006 | 19.74 ± 0.28 | 19.11 ± 0.27 | 18.56 ± 0.27 | 18.03 ± 0.27 | 17.48 ± 0.26 | 16.66 ± 0.26 | 16.29 ± 0.25
x2 = 0.2107 | 19.73 ± 0.27 | 19.1 ± 0.3 | 18.55 ± 0.27 | 18.01 ± 0.26 | 17.42 ± 0.26 | 16.64 ± 0.25 | 16.2 ± 0.3
x2 = 0.2928 | 19.77 ± 0.27 | 19.18 ± 0.27 | 18.57 ± 0.27 | 18.03 ± 0.26 | 17.46 ± 0.26 | 16.68 ± 0.25 | 16.24 ± 0.25
x2 = 0.4128 | 19.9 ± 0.27 | 19.29 ± 0.27 | 18.71 ± 0.26 | 18.15 ± 0.26 | 17.57 ± 0.26 | 16.85 ± 0.25 | 16.38 ± 0.25
x2 = 0.5071 | 20.08 ± 0.27 | 19.46 ± 0.27 | 18.84 ± 0.26 | 18.29 ± 0.26 | 17.72 ± 0.26 | 17.04 ± 0.25 | 16.56 ± 0.25
x2 = 0.5909 | 20.26 ± 0.27 | 19.67 ± 0.27 | 19.02 ± 0.26 | 18.45 ± 0.26 | 17.93 ± 0.26 | 17.26 ± 0.25 | 16.74 ± 0.25
x2 = 0.7036 | 20.61 ± 0.27 | 20.02 ± 0.27 | 19.36 ± 0.26 | 18.8 ± 0.26 | 18.26 ± 0.26 | 17.7 ± 0.25 | 17.21 ± 0.25
x2 = 0.8032 | 21.05 ± 0.27 | 20.46 ± 0.27 | 19.88 ± 0.27 | 19.32 ± 0.26 | 18.82 ± 0.26 | 18.31 ± 0.26 | 17.85 ± 0.25
x2 = 0.9021 | 21.78 ± 0.27 | 21.28 ± 0.27 | 20.73 ± 0.27 | 20.22 ± 0.27 | 19.81 ± 0.26 | 19.38 ± 0.26 | 18.91 ± 0.26
x2 = 0.932 | 22.11 ± 0.28 | 21.64 ± 0.27 | 21.11 ± 0.27 | 20.64 ± 0.27 | 20.22 ± 0.27 | 19.82 ± 0.26 | 19.36 ± 0.26

CCCCCC [hexane]
Conditions | surface tension liquid-gas [mN/m]
283.15 K | 19.63 ± 0.28
288.15 K | 19.04 ± 0.28
293.15 K | 18.52 ± 0.27
298.15 K | 18.06 ± 0.27
303.15 K | 17.53 ± 0.26
308.15 K | 16.74 ± 0.26
313.15 K | 16.47 ± 0.26

CCC(C)O (stereo not drawn) [butan-2-ol]
Conditions | surface tension liquid-gas [mN/m]
283.15 K | 24.37 ± 0.31
288.15 K | 23.95 ± 0.31
293.15 K | 23.56 ± 0.31
298.15 K | 23.08 ± 0.3
303.15 K | 22.75 ± 0.3
308.15 K | 22.39 ± 0.3
313.15 K | 21.97 ± 0.3
